According to patent US20240358693A1, “METHODS OF TREATING PAIN” (Aisa Pharma, Inc., priority 2023, published 2024):

System: participants with SSc-RP
Test: Scleroderma Health Assessment Questionnaire (SHAQ): disability indices and visual analog scales
Format: in vivo, human
Details: Day 12 vs baseline; PP Population, Part A; SSc patients; sensitivity analysis
Description: The standard, validated, patient reported outcome measures tool for SSc patients, the Scleroderma Health Assessment Questionnaire (SHAQ), will be used to assess the participant qualify of life. Details are attached in the Appendix. The participant quality of life will be scored, and a disability index calculated for each questionnaire completed by the patient at Screening and each in-clinic visit. The absolute change in participant quality of life from baseline to the end of each dosing period will be calculated similar to frequency data as before.
The SHAQ includes a Raynaud's VAS, which will be reported at screening and each in-clinic visit. The absolute change in Raynaud-VAS, assessed by the participants response to the SHAQ question ‘In the past 7 days, how much have your Raynaud's interfered with your daily activities?’ at baseline and the end of each dosing period will be calculated similar to frequency data as before.
The SHAQ is used to calculate a Disability Index to assess the participant qualify of life. The eight categories assessed by the Disability Index are 1) dressing and grooming, 2) arising, 3) eating, 4) walking, 5) hygiene, 6) reach, 7) grip, and 8) common daily activities. For each of these categories, patients report the amount of difficulty they have in performing two or three specific activities.
There are four possible responses for the Disability Index questions: • Without any difficulty=0 • With some difficulty=1 • With much difficulty=2 • Unable to do=3. • The highest score reported by the patient for any component question of the eight categories determines the score for that category. • If a component question is left blank or the response is too ambiguous to assign a score, then the score for that category is determined by the remaining completed question(s). • If all component questions are blank or if more than one answer is given, then follow up with the respondent is required. • If the respondent's mark is between the response columns, then move it to the closest one. If it's directly between the two, move it to the higher one.
Each of the disability items on the SHAQ has a companion aids/devices variable that is used to record what type(s) of assistance, if any, the participant uses for his/her usual activities. These variables (see below) are coded as follows: • 0=No assistance is needed. • 1=A special device is used by the patient in his/her usual activities. • 2=The patient usually needs help from another person. • 3=The patient usually needs BOTH a special device AND help from another person.
The scoring variables and scoring rules permit the computation of two disability indices, the Standard Disability Index and the Alternative Disability Index.
This question results in a new set of category scores that are computed by adjusting the score for each category, if necessary, based on the patient's use of an aid or device or assistance for that category. If either devices and/or help from another person are checked for a category, the score is set to “2”, unless the score is already “3” (i.e., scores of “0” or “1” are increased to “2”). For example, if the highest score for the dressing category is “1”, and the patient says they use a device for dressing, the computed category score would be “2”. The sum of the computed categories scores is then calculated and divided by the number of categories answered. This gives a score in the 0 to 3 range.
The aid and device variables are not used to calculate the alternative disability index; it is calculated by adding the scores for each of the categories and dividing by the number of categories answered. This gives a score in the 0 to 3 range.
The standard, validated, patient reported outcome measures tool for SSc patients, the SHAQ, was collected at the time points specified in the study schedules (FIG. 2 and FIGS. 4A and 4B) to assess the participant's quality of life. The SHAQ included a Raynaud's VAS that will also be reported separately.

`COCCOC(=O)C1=C(C)NC(C)=C(C(=O)OC/C=C/c2ccccc2)C1c1cccc([N+](=O)[O-])c1` (stereo not drawn) [Any Cilnidipine] was tested, and the “SHAQ Alternative Disability Index, Change from Baseline, Max” value was 0.38, the “SHAQ Alternative Disability Index, Change from Baseline, Mean” value was −0.006 and the “SHAQ Alternative Disability Index, Change from Baseline, Median” value was 0.000. For the same molecule, the “SHAQ Alternative Disability Index, Change from Baseline, Min” value was −0.29, the “SHAQ Alternative Disability Index, Change from Baseline, Q1” value was −0.125 and the “SHAQ Alternative Disability Index, Change from Baseline, Q3” value was 0.000. For the same molecule, the “SHAQ Alternative Disability Index, Percent Change from Baseline, Max” value was 300.0%, the “SHAQ Alternative Disability Index, Percent Change from Baseline, Mean” value was 21.32% and the “SHAQ Alternative Disability Index, Percent Change from Baseline, Median” value was −10.00%. The “SHAQ Alternative Disability Index, Percent Change from Baseline, Min” value was −100.0%, the “SHAQ Alternative Disability Index, Percent Change from Baseline, Q1” value was −28.57% and the “SHAQ Alternative Disability Index, Percent Change from Baseline, Q3” value was 42.86%. For the same molecule, the “SHAQ Visual Analogue Scale - Finger Ulcers, Change from Baseline, Max” value was 0.40, the “SHAQ Visual Analogue Scale - Finger Ulcers, Change from Baseline, Mean” value was −0.540 and the “SHAQ Visual Analogue Scale - Finger Ulcers, Change from Baseline, Median” value was −0.100. The “SHAQ Visual Analogue Scale - Finger Ulcers, Change from Baseline, Min” value was −3.20, the “SHAQ Visual Analogue Scale - Finger Ulcers, Change from Baseline, Q1” value was −0.700 and the “SHAQ Visual Analogue Scale - Finger Ulcers, Change from Baseline, Q3” value was 0.000. For the same molecule, the “SHAQ Visual Analogue Scale - Finger Ulcers, Percent Change from Baseline, Max” value was 133.3%, the “SHAQ Visual Analogue Scale - Finger Ulcers, Percent Change from Baseline, Mean” value was −33.91% and the “SHAQ Visual Analogue Scale - Finger Ulcers, Percent Change from Baseline, Median” value was −36.11%. The “SHAQ Visual Analogue Scale - Finger Ulcers, Percent Change from Baseline, Min” value was −100.0%, the “SHAQ Visual Analogue Scale - Finger Ulcers, Percent Change from Baseline, Q1” value was −100.00% and the “SHAQ Visual Analogue Scale - Finger Ulcers, Percent Change from Baseline, Q3” value was −12.50%. The “SHAQ Visual Analogue Scale - Intestinal Problems, Change from Baseline, Max” value was 2.90, the “SHAQ Visual Analogue Scale - Intestinal Problems, Change from Baseline, Mean” value was −0.556 and the “SHAQ Visual Analogue Scale - Intestinal Problems, Change from Baseline, Median” value was −0.100. The “SHAQ Visual Analogue Scale - Intestinal Problems, Change from Baseline, Min” value was −4.40, the “SHAQ Visual Analogue Scale - Intestinal Problems, Change from Baseline, Q1” value was −1.100 and the “SHAQ Visual Analogue Scale - Intestinal Problems, Change from Baseline, Q3” value was 0.200. The “SHAQ Visual Analogue Scale - Intestinal Problems, Percent Change from Baseline, Max” value was 181.3%, the “SHAQ Visual Analogue Scale - Intestinal Problems, Percent Change from Baseline, Mean” value was −18.65% and the “SHAQ Visual Analogue Scale - Intestinal Problems, Percent Change from Baseline, Median” value was −54.13%. The “SHAQ Visual Analogue Scale - Intestinal Problems, Percent Change from Baseline, Min” value was −100.0%, the “SHAQ Visual Analogue Scale - Intestinal Problems, Percent Change from Baseline, Q1” value was −100.00% and the “SHAQ Visual Analogue Scale - Intestinal Problems, Percent Change from Baseline, Q3” value was 40.00%. For the same molecule, the “SHAQ Visual Analogue Scale - Overall Disease Severity, Change from Baseline, Max” value was 1.90, the “SHAQ Visual Analogue Scale - Overall Disease Severity, Change from Baseline, Mean” value was −0.991 and the “SHAQ Visual Analogue Scale - Overall Disease Severity, Change from Baseline, Median” value was −1.100. The “SHAQ Visual Analogue Scale - Overall Disease Severity, Change from Baseline, Min” value was −3.10, the “SHAQ Visual Analogue Scale - Overall Disease Severity, Change from Baseline, Q1” value was −1.650 and the “SHAQ Visual Analogue Scale - Overall Disease Severity, Change from Baseline, Q3” value was −0.400. The “SHAQ Visual Analogue Scale - Overall Disease Severity, Percent Change from Baseline, Max” value was 100.0%, the “SHAQ Visual Analogue Scale - Overall Disease Severity, Percent Change from Baseline, Mean” value was −36.33% and the “SHAQ Visual Analogue Scale - Overall Disease Severity, Percent Change from Baseline, Median” value was −42.89%. For the same molecule, the “SHAQ Visual Analogue Scale - Overall Disease Severity, Percent Change from Baseline, Min” value was −100.0%, the “SHAQ Visual Analogue Scale - Overall Disease Severity, Percent Change from Baseline, Q1” value was −58.95% and the “SHAQ Visual Analogue Scale - Overall Disease Severity, Percent Change from Baseline, Q3” value was −24.92%. For the same molecule, the “SHAQ Visual Analogue Scale - Pain, Change from Baseline, Max” value was 0.90, the “SHAQ Visual Analogue Scale - Pain, Change from Baseline, Mean” value was −0.575 and the “SHAQ Visual Analogue Scale - Pain, Change from Baseline, Median” value was −0.600. For the same molecule, the “SHAQ Visual Analogue Scale - Pain, Change from Baseline, Min” value was −2.80, the “SHAQ Visual Analogue Scale - Pain, Change from Baseline, Q1” value was −1.200 and the “SHAQ Visual Analogue Scale - Pain, Change from Baseline, Q3” value was 0.150. For the same molecule, the “SHAQ Visual Analogue Scale - Pain, Percent Change from Baseline, Max” value was 20.5%, the “SHAQ Visual Analogue Scale - Pain, Percent Change from Baseline, Mean” value was −22.77% and the “SHAQ Visual Analogue Scale - Pain, Percent Change from Baseline, Median” value was −22.58%. For the same molecule, the “SHAQ Visual Analogue Scale - Pain, Percent Change from Baseline, Min” value was −72.2%, the “SHAQ Visual Analogue Scale - Pain, Percent Change from Baseline, Q1” value was −53.33% and the “SHAQ Visual Analogue Scale - Pain, Percent Change from Baseline, Q3” value was 11.54%. For the same molecule, the “SHAQ Visual Analogue Scale - Raynaud’s, Change from Baseline, Max” value was 1.50, the “SHAQ Visual Analogue Scale - Raynaud’s, Change from Baseline, Mean” value was −0.696 and the “SHAQ Visual Analogue Scale - Raynaud’s, Change from Baseline, Median” value was −0.300.
